Laboratory results taken from publication PMC7596534, “Bacterial inducible expression of plant cell wall-binding protein YesO through conflict between Glycine max and saprophytic Bacillus subtilis” (Scientific Reports, 2020).

Target: T1, YesO (Bacillus subtilis, UniProt O31518)
T1 construct: primer-encoded N-terminus MTLRIAWWG, native stop codon, no tag apparent
Assay: X-ray crystallography of the complex, […] Å
Type: binding
Conditions: crystallised with 1 mM oligo-RG-I (mostly disaccharide, trisaccharide seen in density); Tris-HCl pH 8.5, 20 C; cleft between N- and C-domains

T1 sequence (O31518 34-427): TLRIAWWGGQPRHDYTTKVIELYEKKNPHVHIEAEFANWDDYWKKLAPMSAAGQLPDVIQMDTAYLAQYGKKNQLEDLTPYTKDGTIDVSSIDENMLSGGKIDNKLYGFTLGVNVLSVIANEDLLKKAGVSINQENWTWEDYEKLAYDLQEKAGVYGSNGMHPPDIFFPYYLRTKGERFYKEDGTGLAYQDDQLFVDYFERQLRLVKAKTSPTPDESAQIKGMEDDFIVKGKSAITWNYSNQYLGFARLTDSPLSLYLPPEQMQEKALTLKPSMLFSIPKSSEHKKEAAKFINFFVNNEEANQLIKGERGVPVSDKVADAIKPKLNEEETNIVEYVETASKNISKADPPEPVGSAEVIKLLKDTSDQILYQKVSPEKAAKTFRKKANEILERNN

C[C@@H]1OC(O)[C@H](O[C@H]2OC(C(=O)O)=C[C@H](O)[C@H]2O)[C@H](O)[C@H]1O[C@@H]1O[C@H](CO)[C@H](O)[C@H](O)[C@H]1O (stereo partly shown) [ΔGalUA-Rha-Gal]
X-ray crystallography of the complex, 1.58 Å: X-ray crystallography of YesO/oligo-RG-I indicated an interaction between YesO and the trisaccharide, ΔGalUA-Rha-Gal
